{"source": "patent US3971779A", "about": "“7-[2-(5-Amino-1,3,4-thiadiazol-2-ylthio)acetamido]cephalosporins” (American Home Products Corporation, priority 1975, dated 1976)", "key": {"[1]": {"system": "Staphylococcus aureus (ST AU) CHP", "assay": "agar serial dilution MIC", "assay_type": "cell-based", "procedure": "(§1) A stock solution of 7-[2-(4,5-dihydro-5-imino-1,3,4-thiadiazol-2-ylthio)acetamido]cephalosporanic acid as the hydrobromic acid addition salt containing 2,500 μg. of the active moiety is prepared in phosphate buffer. Two fold serial dilutions are prepared with phosphate buffer. One milliliter (ml.) quantities of each dilution are incorporated in 9 ml. seen agar in sterile Petri plates. The hardened surface is innoculated with test organisms using a Steers replicating device. The plates are incubated at 35° C. for 18 hours.\n(§2) The test organisms are Bacillus subtilis (BA SU) 6633; Staphylococcus aureus (ST AU) 6538P, Smith CHP, and 3-180; Mycobacterium smegmatis (MY SM) 10143; Neisseria catarrhalis (NE CA) 8193; Pseudonomas aeruginosa (PS AE) 10145; Escherichia coli (ES CO) 9637, and 920; Escherichia intermedia (ES IN) 65-1; Salmonella paratyphi (SA PA) 11737; Enterobacter aerogenes (EN AE) 13048; Klebsiella pneumoniae (KL PN) 10031; Bordetella bronchiseptica (BO BR) 4617; Proteus vulgaris (PR VU) 6896; and Herellea species (HE SP) 9955. These organisms are grown for 18 hours in Brain heart infusion at 35° C. Prior to use the cultures are diluted 10 fold with the infusion, except in the case of Mycobacterium. The latter is grown in Emerson's broth for 5 days at 28° C. in shaker flasks and used undiluted.\n(§3) A second preparation of 7-[2-(4,5-dihydro-5-imino-1,3,4-thiadiazol-2-ylthio)acetamido]cephalosporanic acid prepared as described in Example 1 is tested as described in Example 2. The minimum inhibitory concentrations obtained are as follows: […]"}, "[2]": {"system": "Proteus vulgaris (PR VU) 6896", "assay": "agar serial dilution MIC", "assay_type": "cell-based", "procedure": "as §1, §2, §3"}, "[3]": {"system": "Staphylococcus aureus (ST AU) 6538P", "assay": "agar serial dilution MIC", "assay_type": "cell-based", "procedure": "as §1, §2, §3"}, "[4]": {"system": "Mycobacterium smegmatis (MY SM) 10143", "assay": "agar serial dilution MIC", "assay_type": "cell-based", "details": "Mycolicibacterium smegmatis", "procedure": "as §1, §2, §3"}, "[5]": {"system": "Escherichia intermedia (ES IN) 65-1", "assay": "agar serial dilution MIC", "assay_type": "cell-based", "details": "Citrobacter intermedius", "procedure": "as §1, §2, §3"}, "[6]": {"system": "Herellea species (HE SP) 9955", "assay": "agar serial dilution MIC", "assay_type": "cell-based", "procedure": "as §1, §2, §3"}, "[7]": {"system": "Escherichia coli (ES CO) 9637", "assay": "agar serial dilution MIC", "assay_type": "cell-based", "procedure": "as §1, §2, §3"}, "[8]": {"system": "Bacillus subtilis (BA SU) 6633", "assay": "agar serial dilution MIC", "assay_type": "cell-based", "procedure": "as §1, §2, §3"}, "[9]": {"system": "Salmonella paratyphi (SA PA) 11737", "assay": "agar serial dilution MIC", "assay_type": "cell-based", "details": "Salmonella enterica, 18 h", "procedure": "as §1, §2, §3"}, "[10]": {"system": "Enterobacter aerogenes (EN AE) 13048", "assay": "agar serial dilution MIC", "assay_type": "cell-based", "details": "Klebsiella aerogenes", "procedure": "as §1, §2, §3"}, "[11]": {"system": "Neisseria catarrhalis (NE CA) 8193", "assay": "agar serial dilution MIC", "assay_type": "cell-based", "procedure": "as §1, §2, §3"}, "[12]": {"system": "Klebsiella pneumoniae (KL PN) 10031", "assay": "agar serial dilution MIC", "assay_type": "cell-based", "procedure": "as §1, §2, §3"}, "[13]": {"system": "Escherichia coli (ES CO) 920", "assay": "agar serial dilution MIC", "assay_type": "cell-based", "procedure": "as §1, §2, §3"}, "[14]": {"system": "Pseudonomas aeruginosa (PS AE) 10145", "assay": "agar serial dilution MIC", "assay_type": "cell-based", "procedure": "as §1, §2, §3"}, "[15]": {"system": "Staphylococcus aureus (ST AU) Smith", "assay": "agar serial dilution MIC", "assay_type": "cell-based", "procedure": "as §1, §2, §3"}, "[16]": {"system": "Staphylococcus aureus (ST AU) 3-180", "assay": "agar serial dilution MIC", "assay_type": "cell-based", "details": "18 h", "procedure": "as §1, §2, §3"}, "[17]": {"system": "Bordetella bronchiseptica (BO BR) 4617", "assay": "agar serial dilution MIC", "assay_type": "cell-based", "details": "18 h", "procedure": "as §1, §2, §3"}, "[18]": {"system": "Staphylococcus aureaus CHP", "assay": "mice infected intraperitoneally, single dose six hours post-infection, deaths and CD50", "assay_type": "in vivo", "details": "for ED50: Staphylococcus, po, single dose, mice; for Deaths / Total No. Treated: oral", "procedure": "Mice are infected intraperitoneally with a standardized suspension of Staphylococcus aureaus CHP in 5% gastric mucin. The animals are randomized. Six hours post-infection a single dose of the compound indicated is administered by the route indicated. The animals are observed for a 30 day period and deaths are recorded daily. The CD50 for 14 and 30 days as determined by the method of Reed and Muench, American Journal of Hygiene (1938), for each compound is tabulated:\n7-[2-(5-Acetylamino-1,3,4-thiadiazol-2-ylthio)acetamido]cephalosporanic acid is tested as described in Example 5."}, "[19]": {"system": "Providencia stuartii 25825", "assay": "agar serial dilution MIC", "assay_type": "cell-based", "details": "Example 4", "procedure": "as §1, §2\n(§4) Following the procedure of Example 2 but substituting the organisms listed below the same preparation of 7-[2-(4,5-dihydro-5-imino-1,3,4-thiadiazol-2-ylthio)acetamido]cephalosporanic acid (Compound A) as used in Example 3, a third sample of the same compound, prepared as described in Example 1 (Compound B) and 7-[2-(5-acetamido-1,3,4-thiadiazol-2-ylthio)acetamido]cephalosporanic acid (Compound C) are tested to obtain the results shown: […]"}, "[20]": {"system": "Salmonella cholera-suis 13312", "assay": "agar serial dilution MIC", "assay_type": "cell-based", "procedure": "as §1, §2, §4"}, "[21]": {"details": "first preparation (Example 2), HBr salt, 35° C., 18 hours, read-out: minimum concentration (MIC) required to completely inhibit growth"}, "[22]": {"details": "18 h, second preparation (Example 3), read-out: minimum inhibitory concentration (MIC)"}, "[23]": {"details": "read-out: minimum concentration (MIC) required to completely inhibit growth"}, "[24]": {"details": "second preparation (Example 3), read-out: minimum inhibitory concentration (MIC)"}}, "note": "Where two headings read alike, the source gives them in different places.", "data": [{"smiles": "CC(=O)OCC1=C(C(=O)O)N2C(=O)C(NC(=O)CSc3n[nH]c(=N)s3)C2SC1", "note": "(stereo not shown) [7-[2-(4,5-Dihydro-5-Imino-1,3,4-Thiadiazol-2-ylthio)Acetamido]Cephalosporanic Acid]", "values": [{"measurement": "MIC", "setting": "[1]; 18 h, read-out: minimum inhibitory concentration (MIC)", "value": 1.95, "unit": "µg/mL"}, {"measurement": "MIC", "setting": "[1]; [21]", "value": 0.976, "unit": "µg/mL"}, {"measurement": "MIC", "setting": "[2]; [22]", "value": 3.9, "unit": "µg/mL"}, {"measurement": "MIC", "setting": "[2]; [21]", "value": 15.6, "unit": "µg/mL"}, {"measurement": "MIC", "setting": "[3]; [22]", "value": 0.976, "unit": "µg/mL"}, {"measurement": "MIC", "setting": "[3]; [21]", "value": 0.488, "unit": "µg/mL"}, {"measurement": "MIC", "setting": "[4]; [22]", "value": "> 250", "unit": "µg/mL"}, {"measurement": "MIC", "setting": "[4]; [21]", "value": "> 250", "unit": "µg/mL"}, {"measurement": "MIC", "setting": "[5]; [22]", "value": "> 250", "unit": "µg/mL"}, {"measurement": "MIC", "setting": "[5]; [21]", "value": "> 250", "unit": "µg/mL"}, {"measurement": "MIC", "setting": "[6]; [22]", "value": "> 250", "unit": "µg/mL"}, {"measurement": "MIC", "setting": "[6]; [21]", "value": "> 250", "unit": "µg/mL"}, {"measurement": "MIC", "setting": "[7]; [22]", "value": 31.3, "unit": "µg/mL"}, {"measurement": "MIC", "setting": "[7]; [21]", "value": 7.81, "unit": "µg/mL"}, {"measurement": "MIC", "setting": "[8]; [22]", "value": 0.122, "unit": "µg/mL"}, {"measurement": "MIC", "setting": "[8]; [21]", "value": 0.122, "unit": "µg/mL"}, {"measurement": "MIC", "setting": "[9]; [23]", "value": 3.9, "unit": "µg/mL"}, {"measurement": "MIC", "setting": "[9]; read-out: minimum inhibitory concentration (MIC)", "value": 3.9, "unit": "µg/mL"}, {"measurement": "MIC", "setting": "[10]; [22]", "value": "> 250", "unit": "µg/mL"}, {"measurement": "MIC", "setting": "[10]; [21]", "value": "> 250", "unit": "µg/mL"}, {"measurement": "MIC", "setting": "[11]; [22]", "value": 62.5, "unit": "µg/mL"}, {"measurement": "MIC", "setting": "[11]; [21]", "value": 31.3, "unit": "µg/mL"}, {"measurement": "MIC", "setting": "[12]; [22]", "value": 3.9, "unit": "µg/mL"}, {"measurement": "MIC", "setting": "[12]; [21]", "value": 3.9, "unit": "µg/mL"}, {"measurement": "MIC", "setting": "[13]; [22]", "value": 3.9, "unit": "µg/mL"}, {"measurement": "MIC", "setting": "[13]; [21]", "value": 15.6, "unit": "µg/mL"}, {"measurement": "MIC", "setting": "[14]; [22]", "value": "> 250", "unit": "µg/mL"}, {"measurement": "MIC", "setting": "[14]; [21]", "value": "> 250", "unit": "µg/mL"}, {"measurement": "MIC", "setting": "[15]; [22]", "value": 0.488, "unit": "µg/mL"}, {"measurement": "MIC", "setting": "[15]; [21]", "value": 0.244, "unit": "µg/mL"}, {"measurement": "MIC", "setting": "[16]; [23]", "value": 1.95, "unit": "µg/mL"}, {"measurement": "MIC", "setting": "[16]; [24]", "value": 3.9, "unit": "µg/mL"}, {"measurement": "MIC", "setting": "[17]; [23]", "value": 7.81, "unit": "µg/mL"}, {"measurement": "MIC", "setting": "[17]; [24]", "value": 3.9, "unit": "µg/mL"}, {"measurement": "ED50", "setting": "[18]; 336 h, 14 Days", "value": 3.21, "unit": "mg/kg"}, {"measurement": "ED50", "setting": "[18]; 720 h, 30 Days", "value": 3.4, "unit": "mg/kg"}, {"measurement": "Deaths / Total No. Treated", "setting": "[18]; 100 mg/kg., 14 Days", "value": "10/10"}, {"measurement": "Deaths / Total No. Treated", "setting": "[18]; 100 mg/kg., 30 Days", "value": "10/10"}, {"measurement": "Deaths / Total No. Treated", "setting": "[18]; 200 mg/kg., 14 Days", "value": "4/10"}, {"measurement": "Deaths / Total No. Treated", "setting": "[18]; 200 mg/kg., 30 Days", "value": "4/10"}, {"measurement": "Deaths / Total No. Treated", "setting": "[18]; 400 mg/kg., 14 Days", "value": "0/10"}, {"measurement": "Deaths / Total No. Treated", "setting": "[18]; 400 mg/kg., 30 Days", "value": "0/10"}, {"measurement": "Deaths / Total No. Treated", "setting": "[18]; 800 mg/kg., 14 Days", "value": "0/10"}, {"measurement": "Deaths / Total No. Treated", "setting": "[18]; 800 mg/kg., 30 Days", "value": "1/10"}, {"measurement": "MIC", "setting": "[19]", "value": 250, "unit": "µg/mL"}, {"measurement": "MIC", "setting": "[20]", "value": 1.95, "unit": "µg/mL"}]}]}
